Data published in US6593299B1, “Compositions and methods for controlling pests” (priority 1999, dated 2003).
Square brackets hold non-standard residues; d marks the D form. Ends that are not written are not given here. Peptide text beside a SMILES is read from it.

Test system: Aedes aegypti larvae
Test: Feeding TMOF and analog peptides to mosquito larvae (LD50)
Assay type: in vivo
Conditions: newly hatched larvae on autoclaved yeast 1 mg/ml, peptide 0 to 5.0 mg/ml, microtiter plates, 7 days
Source text: TMOF can traverse the gut epithelium, enter the hemolymph and bind a gut receptor (Borovsky, D. and F. Mahmood (1995) “Feeding the mosquito Aedes aegypti with TMOF and its analogs; effect on trypsin biosynthesis and egg development,” Regulatory Peptides 57:273-281.; Borovsky et al. (1994) “Characterization and localization of mosquito-gut receptors for trypsin modulating oostatic factor using complementary peptide immunochemistry”FASEB J. 8:350-355.). This characteristic permits the testing of TMOF and its analogues by feeding them to mosquito and other pest larvae. To find out if truncated TMOF peptides have an effect on larval growth and development, a series of peptides were synthesized and tested by feeding them to mosquito larvae at concentrations of 0 to 5.0 mg/ml (Table 2). Individual, newly hatched Aedes aegypti larvae were maintained in separate microtiter plate wells on a diet of autoclaved yeast (1 mg/ml). The diet was supplemented with TMOF peptides (Table 2). An identical number of larvae maintained on yeast served as a control. […] All control groups survived and larval growth and development was normal. Since larvae swallow only a small portion of the yeast particles adsorbed the peptides, it is assumed that approximately 1 to 20 ng are taken orally at the high concentrations.

| Molecule | LD50 + S.E.M. [mM] |
| --- | --- |
| N[C@@H](Cc1ccc(O)cc1)C(=O)N[C@@H](CC(=O)O)C(=O)N[C@@H](Cc1ccccc1)C(=O)O [27. YDF, YDF] (H-Tyr-Asp-Phe-OH; N-terminus and C-terminus assumed) | 0.97 ± 0.11 |
| C[C@H](NC(=O)[C@@H]1CCCN1)C(=O)N1CCC[C@H]1C(=O)O [38. PAP, PAP] (H-Pro-Ala-Pro-OH; N-terminus and C-terminus assumed) | 3.17 ± 0.14 |
| N[C@H](Cc1ccc(O)cc1)C(=O)N[C@@H](CC(=O)O)C(=O)N1CCC[C@H]1C(=O)O [24. (D)YDP, (D)YDP] (H-[dY]-Asp-Pro-OH; N-terminus and C-terminus assumed) | 0.51 ± 0.05 |
| C[C@H](NC(=O)[C@H](CC(=O)O)NC(=O)[C@@H](N)Cc1ccc(O)cc1)C(=O)O [32. YDA, YDA] (H-Tyr-Asp-Ala-OH; N-terminus and C-terminus assumed) | 1.6 ± 0.13 |
| N[C@@H](Cc1ccccc1)C(=O)N[C@@H](CC(=O)O)C(=O)N1CCC[C@H]1C(=O)O [33. FDP, FDP] (H-Phe-Asp-Pro-OH; N-terminus and C-terminus assumed) | 1.98 ± 0.6 |
| YDPAL [7. YDPAL, YDPAL] | 0.52 ± 0.03 |
| YDLAP [13. YDLAP, YDLAP] | 0.6 ± 0.05 |
| N[C@@H](Cc1ccc(O)cc1)C(=O)N[C@@H](CC(=O)O)C(=O)NCC(=O)O [26. YDG, YDG] (H-Tyr-Asp-Gly-OH; N-terminus and C-terminus assumed) | 0.95 ± 0.11 |
| C[C@H](NC(=O)[C@H](C)NC(=O)[C@@H]1CCCN1)C(=O)O [37. PAA, PAA] (H-Pro-Ala-Ala-OH; N-terminus and C-terminus assumed) | 2.4 ± 0.34 |
| YDPAA [19. YDPAA, YDPAA] | 1.6 ± 0.13 |
| C[C@H](N)C(=O)N[C@@H](CC(=O)O)C(=O)N1CCC[C@H]1C(=O)O [40. ADP, ADP] (H-Ala-Asp-Pro-OH; N-terminus and C-terminus assumed) | >6.6 |
| N[C@@H](Cc1ccc(O)cc1)C(=O)N[C@@H](CC(=O)O)C(=O)O [41. YD, YD] (H-Tyr-Asp-OH; N-terminus and C-terminus assumed) | 1.24 ± 0.06 |
| FDPAP [5. FDPAP, FDPAP] | 0.37 ± 0.15 |
| YEPAP [4. YEPAP, YEPAP] | 0.35 ± 0.02 |
| YDPAF [3. YDPAF, YDPAF] | 0.33 ± 0.2 |
| N[C@@H](Cc1ccc(O)cc1)C(=O)N[C@H](CC(=O)O)C(=O)N1CCC[C@H]1C(=O)O [22. Y(D)DP, Y(D)DP] (H-Tyr-[dD]-Pro-OH; N-terminus and C-terminus assumed) | 0.28 ± 0.01 |
| C[C@H](NC(=O)[C@@H](N)Cc1ccc(O)cc1)C(=O)N1CCC[C@H]1C(=O)O [36. YAP, YAP] (H-Tyr-Ala-Pro-OH; N-terminus and C-terminus assumed) | 2.3 ± 0.5 |
| YDPLP [6. YDPLP, YDPLP] | 0.5 ± 0.04 |
| YDPAPPPPPP [1. YDPAP6, YDPAP6, reference compound] | 0.2 ± 0.02 |
